This test has as its target T1, full-length human PKCι (Homo sapiens, UniProt P41743).
T1 construct: Recombinant, full-length human PKCι expressed in Sf21 insect cells is also commercially available; purchased; host or cells: Sf21 insect cells
T1 sequence (P41743 1-596): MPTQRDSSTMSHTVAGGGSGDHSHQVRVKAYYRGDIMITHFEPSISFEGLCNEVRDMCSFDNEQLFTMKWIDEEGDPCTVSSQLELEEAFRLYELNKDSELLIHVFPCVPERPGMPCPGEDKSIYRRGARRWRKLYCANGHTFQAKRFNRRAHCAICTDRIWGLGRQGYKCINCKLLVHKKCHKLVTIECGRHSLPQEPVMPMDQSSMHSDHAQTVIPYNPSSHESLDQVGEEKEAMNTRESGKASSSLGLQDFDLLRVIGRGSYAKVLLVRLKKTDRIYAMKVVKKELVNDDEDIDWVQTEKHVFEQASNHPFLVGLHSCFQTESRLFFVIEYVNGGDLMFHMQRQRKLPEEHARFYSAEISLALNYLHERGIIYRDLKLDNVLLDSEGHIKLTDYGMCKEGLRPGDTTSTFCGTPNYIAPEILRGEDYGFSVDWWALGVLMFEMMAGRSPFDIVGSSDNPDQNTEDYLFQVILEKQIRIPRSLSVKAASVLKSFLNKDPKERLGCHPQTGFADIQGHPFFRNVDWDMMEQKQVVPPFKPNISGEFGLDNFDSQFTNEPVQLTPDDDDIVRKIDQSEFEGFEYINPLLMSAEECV
Nature of the test: PKCι IC50 IMAP assay, full-length PKCι at 150 μM ATP. Type of test: biochemical. The following applies: read-out: IC50 in IMAP assay against full length PKCi at 150 μM ATP. Summed up:
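Phosphorylation of a 5FAM-tagged PKCε pseudopeptide-derived substrate (100 nM) by full-length recombinant human PKCι was monitored by IMAP fluorescence polarisation. ATP was held at 150 μM, five times its apparent KM, with 60 min room-temperature incubation.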

As a reminder, the IC50 is the concentration that inhibits the measured activity by half. On to `COc1cncc2nc(-c3ccnc(Nc4ccccc4)c3)nc(N3CCN[C@@H](CCO)C3)c12` [Example 225, 2-{(S)-4-[5-Methoxy-2-(2-phenylamino-pyridin-4-yl)-pyrido[3,4-d]pyrimidin-4-yl]-piperazin-2-yl}-ethanol], for which the IC50 lay within 100 to 1000 nM.
For `N[C@H](CNc1nc(N2CCOCC2)nc2cnccc12)Cc1ccccc1` [Example 1014, (S)—N^1-(2-Morpholin-4-yl-pyrido[3,4-d]pyrimidin-4-yl)-3-phenyl-propane-1,2-diamine], the IC50 lay within 100 to 1000 nM.
Then `CN1CCN(c2cccc(Nc3cc(-c4nc(N5CCNCC5)c5c(C6CC6)cncc5n4)ccn3)c2)CC1` [Example 681, [4-(5-Cyclopropyl-4-piperazin-1-yl-pyrido[3,4-d]pyrimidin-2-yl)-pyridin-2-yl]-[3-(4-methyl-piperazin-1-yl)-phenyl]-amine], with < 100 nM; and `C[C@@H](Nc1cc(-c2nc(N3CCNCC3)c3c(C4CC4)cncc3n2)ccn1)c1ccccc1` [Example 586, [4-(5-Cyclopropyl-4-piperazin-1-yl-pyrido[3,4-d]pyrimidin-2-yl)-pyridin-2-yl]-((R)-1-phenyl-ethyl)-amine], with < 100 nM; and `FC(F)(F)c1cccc(Nc2cc(-c3nc(N4CCNCC4)c4c(C5CC5)cncc4n3)ccn2)c1` [Example 646, [4-(5-Cyclopropyl-4-piperazin-1-yl-pyrido[3,4-d]pyrimidin-2-yl)-pyridin-2-yl]-(3-trifluoromethyl-phenyl)-amine], with < 100 nM.
Then `Clc1cnc(-c2cc[nH]n2)c2nc(-c3ccncc3)nc(N3CCNCC3)c12` [Example 141, 5-Chloro-4-piperazin-1-yl-8-(1H-pyrazol-3-yl)-2-pyridin-4-yl-pyrido[3,4d]pyrimidine], with 100 to 1000 nM; and `COc1cncc2nc(-c3ccnc(Nc4ccc(F)cc4F)c3)nc(N3CCNCC3)c12` [Example 453, (2,4-Difluoro-phenyl)-[4-(5-methoxy-4-piperazin-1-yl-pyrido[3,4-d]pyrimidin-2-yl)-pyridin-2-yl]-amine], with < 100 nM; and `O=C(Nc1cc(-c2nc(N3CCNCC3)c3c(C4CC4)cncc3n2)ccn1)C(F)(F)c1ccccc1` [Example 2126, N-[4-(5-Cyclopropyl-4-piperazin-1-yl-pyrido[3,4-d]pyrimidin-2-yl)-pyridin-2-yl]-2,2-difluoro-2-phenyl-acetamide], with < 100 nM.
To `CN1CCN(c2cccc(Nc3cc(-c4nc(N5CCC[C@@H](O)C5)c5c(C6CC6)cncc5n4)ccn3)c2)CC1` [Example 720, (R)-1-(5-Cyclopropyl-2-{2-[3-(4-methyl-piperazin-1-yl)-phenylamino]-pyridin-4-yl}-pyrido[3,4-d]pyrimidin-4-yl)-piperidin-3-ol] belongs < 100 nM.
Take `Fc1cccc(F)c1Nc1cc(-c2nc(NC3CCCNC3)c3c(C4CC4)cncc3n2)ccn1` (stereo not drawn) [Example 842, {5-Cyclopropyl-2-[2-(2,6-difluoro-phenylamino)-pyridin-4-yl]-pyrido[3,4-d]pyrimidin-4-yl}-piperidin-3-yl-amine]: the IC50 is < 100 nM.
With `c1cc(-c2nc(N3CCNCC3)c3c(C4CC4)cncc3n2)ccn1` [Example 139, 1-[5-cyclopropyl-2-(pyridin-4-yl)pyrido[3,4-d]pyrimidin-4-yl]piperazine], the IC50 is < 100 nM.
Then `c1cc(-c2nc(N3CCNCC3)c3c(C4CC4)cncc3n2)cc(Nc2ccn3nccc3c2)n1` [Example 564, [4-(5-Cyclopropyl-4-piperazin-1-yl-pyrido[3,4-d]pyrimidin-2-yl)-pyridin-2-yl]-pyrazolo[1,5-a]pyridin-5-yl-amine], with < 100 nM; and `Nc1cc(-c2nc(N3CCNCC3)c3c(C4CC4)cncc3n2)ccn1` [Example 582, 4-(5-Cyclopropyl-4-piperazin-1-yl-pyrido[3,4-d]pyrimidin-2-yl)-pyridin-2-ylamine], with < 100 nM.
For the compound `O=C1OCC2CN(c3nc(-c4ccnc(Nc5ccccc5)c4)nc4cncc(C5CC5)c34)CCN12` (stereo not drawn) [Example 525, 7-[5-Cyclopropyl-2-(2-phenylamino-pyridin-4-yl)-pyrido[3,4-d]pyrimidin-4-yl]-hexahydro-oxazolo[3,4-a]pyrazin-3-one], the IC50 lay in the range of 100 to 1000 nM.
To `COc1cncc2nc(-c3ccnc(Nc4cnn(C5CCNCC5)c4)c3)nc(N3CCNCC3)c12` [Example 414, [4-(5-Methoxy-4-piperazin-1-yl-pyrido[3,4-d]pyrimidin-2-yl)-pyridin-2-yl]-(1-piperidin-4-yl-1H-pyrazol-4-yl)-amine] belongs < 100 nM; to `CC(F)(F)C1CN(c2nc(-c3ccnc(Nc4ccccc4)c3)nc3cncc(C4CC4)c23)CCN1` (stereo not drawn) [Example 278, (4-{5-Cyclopropyl-4-[3-(1,1-difluoro-ethyl)-piperazin-1-yl]-pyrido[3,4-d]pyrimidin-2-yl}-pyridin-2-yl)-phenyl-amine], 10000 to 40000 nM; to `Fc1cccc(F)c1-n1cc(Nc2cc(-c3nc(N4CCNCC4)c4c(C5CC5)cncc4n3)ccn2)cn1` [Example 818, [4-(5-Cyclopropyl-4-piperazin-1-yl-pyrido[3,4-d]pyrimidin-2-yl)-pyridin-2-yl]-[1-(2,6-difluoro-phenyl)-1H-pyrazol-4-yl]-amine], < 100 nM.
To `CN1CCN(c2ccc(Nc3cc(-c4nc(N[C@@H]5CCNC5)c5ccncc5n4)ccn3)cn2)CC1` [Example 320, (2-{2-[6-(4-Methyl-piperazin-1-yl)-pyridin-3-ylamino]-pyridin-4-yl}-pyrido[3,4-d]pyrimidin-4-yl)-(R)-pyrrolidin-3-yl-amine] belongs < 100 nM; to `COc1cncc2nc(-c3ccnc(Nc4cc(C)ccn4)c3)nc(N3CCNCC3)c12` [Example 363, [4-(5-Methoxy-4-piperazin-1-yl-pyrido[3,4-d]pyrimidin-2-yl)-pyridin-2-yl]-(4-methyl-pyridin-2-yl)-amine], < 100 nM; to `c1cc(-c2nc(N3CCNCC3)c3c(C4CC4)cncc3n2)cc(Nc2cnn(C3CCOCC3)c2)n1` [Example 795, [4-(5-Cyclopropyl-4-piperazin-1-yl-pyrido[3,4-d]pyrimidin-2-yl)-pyridin-2-yl]-[1-(tetrahydro-pyran-4-yl)-1H-pyrazol-4-yl]-amine], < 100 nM.
`COc1cncc2nc(-c3ccnc(Nc4cc(F)ccc4F)c3)nc(N3CCNCC3)c12` [Example 440, (2,5-Difluoro-phenyl)-[4-(5-methoxy-4-piperazin-1-yl-pyrido[3,4-d]pyrimidin-2-yl)-pyridin-2-yl]-amine]: the IC50 was < 100 nM.
To `COc1cncc2nc(N3CCOCC3)nc(NC[C@@H](N)Cc3ccccc3)c12` [Example 1002, (S)-N^1-(5-Methoxy-2-morpholin-4-yl-pyrido[3,4-d]pyrimidin-4-yl)-3-phenyl-propane-1,2-diamine] belongs < 100 nM.
With `COc1cncc2nc(N3CCOC(COc4ccccc4)C3)nc(N3CCNCC3)c12` (stereo not drawn) [Example 1004, 5-Methoxy-2-(2-phenoxymethyl-morpholin-4-yl)-4-piperazin-1-yl-pyrido[3,4-d]pyrimidine], the half-inhibitory concentration (IC50) lay in the range of 1000 to 10000 nM.
To `c1cc(-c2nc(N3CCNCC3)c3c(C4CC4)cncc3n2)cc(Nc2ccc3ccnn3c2)n1` [Example 563, [4-(5-Cyclopropyl-4-piperazin-1-yl-pyrido[3,4-d]pyrimidin-2-yl)-pyridin-2-yl]-pyrazolo[1,5-a]pyridin-6-yl-amine] belongs < 100 nM.
